From ChEMBL document CHEMBL1201861, “Genomics of Drug Sensitity in Cancer screening data, Wellcome Trust Sanger Institute”

Assays:
Experiment in all cases: cells
Conditions in all cases: Homo sapiens
CW-2 = assay type: functional, cell-based;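 further: growth inhibition of CW-2 cells, read out by a cell viability assay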
Description: SANGER: Inhibition of human CW-2 cell growth in a cell viability assay.

D-502MG = assay type: functional, cell-based
Description: SANGER: Inhibition of human D-502MG cell growth in a cell viability assay.

DJM-1 = assay type: functional, cell-based;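 further: growth inhibition of human DJM-1 cells, read out by a cell viability assay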
Description: SANGER: Inhibition of human DJM-1 cell growth in a cell viability assay.

DOHH-2 = assay type: functional, cell-based;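 further: growth inhibition of human DOHH-2 cells, read out with a cell viability assay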
Description: SANGER: Inhibition of human DOHH-2 cell growth in a cell viability assay.

EKVX = assay type: functional, cell-based;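 further: growth inhibition of human EKVX cells, read out with a cell viability assay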
Description: SANGER: Inhibition of human EKVX cell growth in a cell viability assay.

ES5 = assay type: functional, cell-based;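 further: growth inhibition of human ES5 cells, read out by a cell viability assay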
Description: SANGER: Inhibition of human ES5 cell growth in a cell viability assay.

EW-1 = assay type: functional, cell-based;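 further: growth inhibition of the human EW-1 cell line, read out by a cell viability assay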
Description: SANGER: Inhibition of human EW-1 cell growth in a cell viability assay.

GCIY = assay type: functional, cell-based;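 further: growth inhibition of the human GCIY cell line, read out by a cell viability assay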
Description: SANGER: Inhibition of human GCIY cell growth in a cell viability assay.

HC-1 = assay type: functional, cell-based;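 further: growth inhibition of HC-1 cells measured by a cell viability assay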
Description: SANGER: Inhibition of human HC-1 cell growth in a cell viability assay.

HCC2218 = assay type: functional, cell-based;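 further: cell viability assay read-out, with IC50 given as the concentration that inhibits growth of the cell line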
Description: SANGER: Inhibition of human HCC2218 cell growth in a cell viability assay.

HCE-T = assay type: functional, cell-based;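 further: cell viability assay read-out, reporting inhibition of HCE-T cell growth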
Description: SANGER: Inhibition of human HCE-T cell growth in a cell viability assay.

HH = assay type: functional, cell-based
Description: SANGER: Inhibition of human HH cell growth in a cell viability assay.

HOP-62 = assay type: functional, cell-based;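 further: cell growth inhibition determined with a viability assay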
Description: SANGER: Inhibition of human HOP-62 cell growth in a cell viability assay.

HuTu80 = assay type: functional, cell-based, HUTU-80;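 further: growth inhibition of HuTu80 human cells, determined with a cell viability readout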
Description: SANGER: Inhibition of human HUTU-80 cell growth in a cell viability assay.

IA-LM = assay type: functional, cell-based;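 further: cell viability assay measuring growth inhibition of human IA-LM cells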
Description: SANGER: Inhibition of human IA-LM cell growth in a cell viability assay.

KARPAS-299 = assay type: functional, cell-based
Description: SANGER: Inhibition of human KARPAS-299 cell growth in a cell viability assay.

KARPAS-45 = assay type: functional, cell-based;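 further: inhibition of cell line growth, read out through a viability assay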
Description: SANGER: Inhibition of human KARPAS-45 cell growth in a cell viability assay.

KINGS-1 = assay type: functional, cell-based;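 further: cell viability assay measuring suppression of KINGS-1 cell growth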
Description: SANGER: Inhibition of human KINGS-1 cell growth in a cell viability assay.

KLE = assay type: functional, cell-based;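 further: growth inhibition of human KLE cells, read out with a cell viability assay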
Description: SANGER: Inhibition of human KLE cell growth in a cell viability assay.

KMOE-2 = assay type: functional, cell-based;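 further: growth inhibition of human KMOE-2 cells, read out with a cell viability assay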
Description: SANGER: Inhibition of human KMOE-2 cell growth in a cell viability assay.

KS-1 = assay type: functional, cell-based;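 further: growth inhibition of KS-1 cells, read out with a cell viability assay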
Description: SANGER: Inhibition of human KS-1 cell growth in a cell viability assay.

KURAMOCHI = assay type: functional, cell-based;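 further: growth inhibition of KURAMOCHI cells, read out with a cell viability assay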
Description: SANGER: Inhibition of human KURAMOCHI cell growth in a cell viability assay.

KY821 = assay type: functional, cell-based;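 further: growth inhibition of human KY821 cells, read out by a cell viability assay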
Description: SANGER: Inhibition of human KY821 cell growth in a cell viability assay.

LAN-6 = assay type: functional, cell-based;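 further: growth inhibition of LAN-6 cells, determined with a cell viability assay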
Description: SANGER: Inhibition of human LAN-6 cell growth in a cell viability assay.

LNCaP-Clone-FGC = assay type: functional, cell-based
Description: SANGER: Inhibition of human LNCaP-Clone-FGC cell growth in a cell viability assay.

LS-1034 = assay type: functional, cell-based
Description: SANGER: Inhibition of human LS-1034 cell growth in a cell viability assay.

LS-513 = assay type: functional, cell-based
Description: SANGER: Inhibition of human LS-513 cell growth in a cell viability assay.

LU-134-A = assay type: functional, cell-based
Description: SANGER: Inhibition of human LU-134-A cell growth in a cell viability assay.

Lu-65 = assay type: functional, cell-based;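 further: growth inhibition of Lu-65 cancer cells, read out by a cell viability assay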
Description: SANGER: Inhibition of human LU-65 cell growth in a cell viability assay.

LXF-289 cell line = assay type: functional, cell-based
Description: SANGER: Inhibition of human LXF-289 cell growth in a cell viability assay.

MHH-NB-11 = assay type: functional, cell-based;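 further: growth inhibition of human MHH-NB-11 cells, read out by a cell viability assay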
Description: SANGER: Inhibition of human MHH-NB-11 cell growth in a cell viability assay.

MHH-PREB-1 = assay type: functional, cell-based;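 further: cell viability assay measuring inhibition of proliferation of human MHH-PREB-1 cells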
Description: SANGER: Inhibition of human MHH-PREB-1 cell growth in a cell viability assay.

MLMA = assay type: functional, cell-based;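 further: growth inhibition of MLMA cells (human), determined through a cell viability readout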
Description: SANGER: Inhibition of human MLMA cell growth in a cell viability assay.

MSTO-211H = assay type: functional, cell-based
Description: SANGER: Inhibition of human MSTO-211H cell growth in a cell viability assay.

Mo = assay type: functional, cell-based
Description: SANGER: Inhibition of human Mo-T cell growth in a cell viability assay.

NB6 = assay type: functional, cell-based;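 further: growth inhibition of NB6 cells, read out by a cell viability assay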
Description: SANGER: Inhibition of human NB6 cell growth in a cell viability assay.

NCI-H1155 = assay type: functional, cell-based;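 further: cell growth inhibition measured by a viability assay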
Description: SANGER: Inhibition of human NCI-H1155 cell growth in a cell viability assay.

NCI-H69 = assay type: functional, cell-based;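 further: growth inhibition of the cell line, read out with a cell viability assay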
Description: SANGER: Inhibition of human NCI-H69 cell growth in a cell viability assay.

NCI-H747 = assay type: functional, cell-based;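 further: growth inhibition of human NCI-H747 cells, read out by a cell viability assay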
Description: SANGER: Inhibition of human NCI-H747 cell growth in a cell viability assay.

SNU1 = assay type: functional, cell-based;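 further: growth inhibition of human NCI-SNU-1 cells, measured with a cell viability assay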
Description: SANGER: Inhibition of human NCI-SNU-1 cell growth in a cell viability assay.

NEC8 = assay type: functional, cell-based;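 further: growth inhibition of human NEC8 cells, read out by a cell viability assay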
Description: SANGER: Inhibition of human NEC8 cell growth in a cell viability assay.

NOMO-1 = assay type: functional, cell-based;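 further: growth inhibition of human NOMO-1 cells measured by a cell viability assay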
Description: SANGER: Inhibition of human NOMO-1 cell growth in a cell viability assay.

NOS-1 = assay type: functional, cell-based;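 further: growth inhibition of the human NOS-1 cell line, read out with a cell viability assay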
Description: SANGER: Inhibition of human NOS-1 cell growth in a cell viability assay.

OMC-1 = assay type: functional, cell-based;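 further: growth inhibition of the OMC-1 cell line, measured by a cell viability assay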
Description: SANGER: Inhibition of human OMC-1 cell growth in a cell viability assay.

ONS-76 = assay type: functional, cell-based;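 further: growth inhibition of human ONS-76 cells, read out with a cell viability assay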
Description: SANGER: Inhibition of human ONS-76 cell growth in a cell viability assay.

P30-OHK = assay type: functional, cell-based;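 further: growth inhibition of the P30-OHK cell line, read out with a cell viability assay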
Description: SANGER: Inhibition of human P30-OHK cell growth in a cell viability assay.

QIMR-WIL = assay type: functional, cell-based;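 further: growth inhibition of QIMR-WIL cells, read out with a cell viability assay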
Description: SANGER: Inhibition of human QIMR-WIL cell growth in a cell viability assay.

RPMI-8866 = assay type: functional, cell-based
Description: SANGER: Inhibition of human RPMI-8866 cell growth in a cell viability assay.

Ramos-2G6-4C10 = assay type: functional, cell-based;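 further: growth inhibition of the cell line, measured by a cell viability read-out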
Description: SANGER: Inhibition of human Ramos-2G6-4C10 cell growth in a cell viability assay.

SF-126 = assay type: functional, cell-based;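 further: growth inhibition of human SF126 cells, read out with a cell viability assay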
Description: SANGER: Inhibition of human SF126 cell growth in a cell viability assay.

SK-LMS-1 = assay type: functional, cell-based;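 further: growth inhibition of human SK-LMS-1 cells, read out with a cell viability assay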
Description: SANGER: Inhibition of human SK-LMS-1 cell growth in a cell viability assay.

SK-NEP-1 = assay type: functional, cell-based;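 further: growth inhibition of human SK-NEP-1 cells, read out by a cell viability assay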
Description: SANGER: Inhibition of human SK-NEP-1 cell growth in a cell viability assay.

SNU-C2B = assay type: functional, cell-based;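 further: cell viability readout used to measure compound-driven suppression of SNU-C2B cell proliferation, IC50 marking half-maximal growth inhibition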
Description: SANGER: Inhibition of human SNU-C2B cell growth in a cell viability assay.

SW 962 = assay type: functional, cell-based;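 further: growth inhibition of human SW962 cells, read out by a cell viability assay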
Description: SANGER: Inhibition of human SW962 cell growth in a cell viability assay.

SW982 = assay type: functional, cell-based;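 further: growth inhibition of SW982 cells, read out with a cell viability assay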
Description: SANGER: Inhibition of human SW982 cell growth in a cell viability assay.

8-MG-BA = assay type: functional, cell-based;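 further: growth inhibition of 8-MG-BA cells, read out with a cell viability assay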
Description: SANGER: Inhibition of human 8-MG-BA cell growth in a cell viability assay.

A704 = assay type: functional, cell-based;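 further: growth inhibition of human A704 cells, read out with a cell viability assay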
Description: SANGER: Inhibition of human A704 cell growth in a cell viability assay.

BB30-HNC = assay type: functional, cell-based;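 further: growth inhibition of the cultured cell line, read out by a cell viability assay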
Description: SANGER: Inhibition of human BB30-HNC cell growth in a cell viability assay.

C8166 = assay type: functional, cell-based
Description: SANGER: Inhibition of human C8166 cell growth in a cell viability assay.

TE-8 = assay type: functional, cell-based
Description: SANGER: Inhibition of human TE-8 cell growth in a cell viability assay.

TGBC24TKB = assay type: functional, cell-based
Description: SANGER: Inhibition of human TGBC24TKB cell growth in a cell viability assay.

TK-10 = assay type: functional, cell-based
Description: SANGER: Inhibition of human TK10 cell growth in a cell viability assay.

U-87 MG = assay type: functional, cell-based, U-87MG ATCC
Description: SANGER: Inhibition of human U-87-MG cell growth in a cell viability assay.

CCRF-CEM = assay type: functional, cell-based
Description: SANGER: Inhibition of human CCRF-CEM cell growth in a cell viability assay.

COLO-668 = assay type: functional, cell-based
Description: SANGER: Inhibition of human COLO-668 cell growth in a cell viability assay.

SMILES: CC[C@]1(O)C[C@@H]2CN(CCc3c([nH]c4ccccc34)[C@@](C(=O)OC)(c3cc4c(cc3OC)N(C)[C@H]3[C@@](O)(C(=O)OC)[C@H](OC(C)=O)[C@]5(CC)C=CCN6CC[C@]43[C@@H]65)C2)C1 [VINBLASTINE]
- IC50 (CW-2): > 100 nM
- IC50 (D-502MG): 23.5 nM
- IC50 (DJM-1): > 100 nM
- IC50 (DOHH-2): 1.81 nM
- IC50 (EKVX): > 100 nM
- IC50 (ES5): 3.88 nM
- IC50 (EW-1): 3.15 nM
- IC50 (GCIY): 49.7 nM
- IC50 (HC-1): 4.21 nM
- IC50 (HCC2218): 79.3 nM
- IC50 (HCE-T): 20 nM
- IC50 (HH): 6.37 nM
- IC50 (HOP-62): > 100 nM
- IC50 (HuTu80): 12.3 nM
- IC50 (IA-LM): 68.6 nM
- IC50 (KARPAS-299): > 100 nM
- IC50 (KARPAS-45): 1.79 nM
- IC50 (KINGS-1): 9.32 nM
- IC50 (KLE): > 100 nM
- IC50 (KMOE-2): 20.8 nM
- IC50 (KS-1): 7.99 nM
- IC50 (KURAMOCHI): > 100 nM
- IC50 (KY821): 3.69 nM
- IC50 (LAN-6): 47.7 nM
- IC50 (LNCaP-Clone-FGC): 8.28 nM
- IC50 (LS-1034): > 100 nM
- IC50 (LS-513): 56.3 nM
- IC50 (LU-134-A): 8.58 nM
- IC50 (Lu-65): > 100 nM
- IC50 (LXF-289 cell line): 10.3 nM
- IC50 (MHH-NB-11): 38.9 nM
- IC50 (MHH-PREB-1): 1.49 nM
- IC50 (MLMA): 4.65 nM
- IC50 (MSTO-211H): 12.2 nM
- IC50 (Mo): > 100 nM
- IC50 (NB6): 80 nM
- IC50 (NCI-H1155): 43.7 nM
- IC50 (NCI-H69): > 100 nM
- IC50 (NCI-H747): 81.2 nM
- IC50 (SNU1): 1.62 nM
- IC50 (NEC8): 5.12 nM
- IC50 (NOMO-1): 7.86 nM
- IC50 (NOS-1): 40.9 nM
- IC50 (OMC-1): > 100 nM
- IC50 (ONS-76): 3.74 nM
- IC50 (P30-OHK): 11.1 nM
- IC50 (QIMR-WIL): 8.95 nM
- IC50 (RPMI-8866): 1.97 nM
- IC50 (Ramos-2G6-4C10): 1.55 nM
- IC50 (SF-126): 21.9 nM
- IC50 (SK-LMS-1): 58.6 nM
- IC50 (SK-NEP-1): 1.5 nM
- IC50 (SNU-C2B): 24.7 nM
- IC50 (SW 962): 19.4 nM
- IC50 (SW982): 8.92 nM
- IC50 (8-MG-BA): 6.34 nM
- IC50 (A704): > 100 nM
- IC50 (BB30-HNC): 8.31 nM
- IC50 (C8166): 27 nM
- IC50 (TE-8): 6.16 nM
- IC50 (TGBC24TKB): 32.5 nM
- IC50 (TK-10): 42.4 nM
- IC50 (U-87 MG): 30 nM
- IC50 (CCRF-CEM): 10.1 nM
- IC50 (COLO-668): > 100 nM

SMILES: CO[C@@]12[C@H](COC(N)=O)C3=C(C(=O)C(C)=C(N)C3=O)N1C[C@@H]1N[C@@H]12 [MITOMYCIN]
- IC50 (CW-2): 7730 nM
- IC50 (D-502MG): > 16000 nM
- IC50 (DJM-1): 1030 nM
- IC50 (DOHH-2): 93.8 nM
- IC50 (EKVX): 893 nM
- IC50 (ES5): 102 nM
- IC50 (EW-1): 88.1 nM
- IC50 (GCIY): 411 nM
- IC50 (HC-1): 157 nM
- IC50 (HCC2218): 589 nM
- IC50 (HCE-T): 372 nM
- IC50 (HH): 1070 nM
- IC50 (HOP-62): 20.2 nM
- IC50 (HuTu80): < 62.5 nM
- IC50 (IA-LM): 109 nM
- IC50 (KARPAS-299): 1420 nM
- IC50 (KARPAS-45): 2270 nM
- IC50 (KINGS-1): 8610 nM
- IC50 (KLE): 2980 nM
- IC50 (KMOE-2): 1620 nM
- IC50 (KS-1): 364 nM
- IC50 (KURAMOCHI): 523 nM
- IC50 (KY821): 1650 nM
- IC50 (LAN-6): 328 nM
- IC50 (LNCaP-Clone-FGC): 450 nM
- IC50 (LS-1034): 30.2 nM
- IC50 (LS-513): 1180 nM
- IC50 (LU-134-A): 46.7 nM
- IC50 (Lu-65): 1010 nM
- IC50 (LXF-289 cell line): 55.4 nM
- IC50 (MHH-NB-11): 193 nM
- IC50 (MHH-PREB-1): 3150 nM
- IC50 (MLMA): 1310 nM
- IC50 (MSTO-211H): 2820 nM
- IC50 (Mo): 8910 nM
- IC50 (NB6): 2230 nM
- IC50 (NCI-H1155): 873 nM
- IC50 (NCI-H69): 1680 nM
- IC50 (NCI-H747): 412 nM
- IC50 (SNU1): 156 nM
- IC50 (NEC8): 187 nM
- IC50 (NOMO-1): 151 nM
- IC50 (NOS-1): 1500 nM
- IC50 (OMC-1): 390 nM
- IC50 (ONS-76): 330 nM
- IC50 (P30-OHK): < 62.5 nM
- IC50 (QIMR-WIL): 120 nM
- IC50 (RPMI-8866): 1320 nM
- IC50 (Ramos-2G6-4C10): 2550 nM
- IC50 (SF-126): 1410 nM
- IC50 (SK-LMS-1): 439 nM
- IC50 (SK-NEP-1): 167 nM
- IC50 (SNU-C2B): 295 nM
- IC50 (SW 962): 158 nM
- IC50 (SW982): 105 nM
- IC50 (8-MG-BA): 104 nM
- IC50 (A704): 2380 nM
- IC50 (BB30-HNC): 30.6 nM
- IC50 (C8166): 932 nM
- IC50 (TE-8): 35.9 nM
- IC50 (TGBC24TKB): 710 nM
- IC50 (TK-10): 528 nM
- IC50 (U-87 MG): 1270 nM
- IC50 (CCRF-CEM): 61.7 nM
- IC50 (COLO-668): < 62.5 nM
